Data set [1] addresses Acetylcholinesterase (Electrophorus electricus) (UniProt O42275). The data set is described as follows: Inhibition of electric eel AChE at 20 uM using acetylthiocholine iodide as substrate preincubated with enzyme for 20 mins followed by substrate addition by Ellman's method relative to control. (In general: Ellman's reagent forms a yellow product with free thiols.)
Data set [2] addresses T1, Cholinesterase (Equus caballus, UniProt P81908). The data set is described as follows: Inhibition of equine serum BuChE using butyrylthiocholine iodide as substrate preincubated with enzyme for 20 mins followed by substrate addition by Ellman's method.
The target in data set [3] is Cholinesterase (Equus caballus) (UniProt P81908). Kind of data set: Mixed inhibition of equine serum BChE assessed as decrease in Vmax at 0.5 to 2 uM using varying levels of butyrylthiocholine iodide as substrate by Line weaver Burk reciprocal plot analysis.
Cholinesterase (Equus caballus), sequence (P81908 whole entry): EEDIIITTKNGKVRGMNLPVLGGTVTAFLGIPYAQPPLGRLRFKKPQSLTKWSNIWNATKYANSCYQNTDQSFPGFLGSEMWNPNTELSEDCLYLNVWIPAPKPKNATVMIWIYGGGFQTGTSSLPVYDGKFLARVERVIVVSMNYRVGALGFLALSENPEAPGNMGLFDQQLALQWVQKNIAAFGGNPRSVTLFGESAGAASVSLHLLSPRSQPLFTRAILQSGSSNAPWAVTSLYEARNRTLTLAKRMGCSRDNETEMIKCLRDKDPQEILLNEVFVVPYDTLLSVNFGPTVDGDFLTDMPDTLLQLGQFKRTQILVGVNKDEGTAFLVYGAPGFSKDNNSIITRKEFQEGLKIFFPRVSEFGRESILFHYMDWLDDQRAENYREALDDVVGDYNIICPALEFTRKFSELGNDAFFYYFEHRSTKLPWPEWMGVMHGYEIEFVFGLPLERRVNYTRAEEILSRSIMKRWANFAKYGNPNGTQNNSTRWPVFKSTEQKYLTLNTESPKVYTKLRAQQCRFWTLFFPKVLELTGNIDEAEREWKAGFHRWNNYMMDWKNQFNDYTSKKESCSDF
The target is the same in data set [4]. The data set is described as follows: Mixed inhibition of equine serum BChE assessed as increase in substrate Km at 0.5 to 2 uM using varying levels of butyrylthiocholine iodide as substrate by Line weaver Burk reciprocal plot analysis.
The target is the same in data set [5]. The data set is described as follows: Reversible inhibition of equine serum BChE at 0.4 to 1 uM using varying levels of butyrylcholine iodide as substrate.
Data set [6] can be described thus: Octanol-PBS buffer partition coefficient, log P of the compound incubated for 24 hrs measured at pH 7.4 by shake-flask method. The data set is classed as physicochemical.
Data set [7] can be described thus: Cytotoxicity against human HepG2 cells assessed as cell viability at 5 to 50 uM measured after 24 hrs by MTT assay. The class given is cell-based. As to conditions: read-out: Activity.
A short description of data set [8]: Cytotoxicity against rat PC12 cells assessed as cell viability at 5 to 50 uM measured after 24 hrs by MTT assay. The class given is cell-based, PC-12. The settings on record: read-out: Activity.
A further data set has as its system PC-12. The data set is described as follows: Neuroprotective activity against H2O2-induced cytotoxicity in rat PC12 cells assessed as increase in cell viability at 10 to 25 uM pretreated for 3 hrs followed by H2O2 stimulation in continuous presence of compound for 24 hrs by MTT assay relative to control. The data set is classed as functional. (In general: Tetrazolium assays rely on reduction of a dye to a coloured formazan, in cell work by metabolically active cells.)

Data set [9] addresses T1, Cholinesterase. Kind of data set: Inhibition of equine serum BChE using varying levels of butyrylthiocholine iodide as substrate by Line weaver Burk reciprocal plot analysis.
Data set [10] has as its target Cholinesterase (Equus caballus) (UniProt P81908). The data set is described as follows: Mixed inhibition of equine serum BChE assessed as decrease in Vmax at 1 to 5 uM using varying levels of butyrylthiocholine iodide as substrate by Line weaver Burk reciprocal plot analysis.
Data set [11] shares this target. The data set is described as follows: Mixed inhibition of equine serum BChE assessed as increase in substrate Km at 1 to 5 uM using varying levels of butyrylthiocholine iodide as substrate by Line weaver Burk reciprocal plot analysis.
Data set [12] shares this target. Kind of data set: Non-competitive inhibition of equine serum BChE at 1 to 5 uM using varying levels of butyrylcholine iodide as substrate by Line weaver Burk reciprocal plot analysis.

From ChEMBL document CHEMBL4406826, “Discovery of δ-sultone-fused pyrazoles for treating Alzheimer's disease: Design, synthesis, biological evaluation and SAR studies” (Eur J Med Chem, 2019) come the findings set out here.

The source made the active and inactive calls. Unless noted, the calls are words filed in the database; no cut-off is given here.

T1 sequence (P81908 whole entry): as above
Acetylcholinesterase (Electrophorus electricus), sequence (O42275 24-633 limits assumed): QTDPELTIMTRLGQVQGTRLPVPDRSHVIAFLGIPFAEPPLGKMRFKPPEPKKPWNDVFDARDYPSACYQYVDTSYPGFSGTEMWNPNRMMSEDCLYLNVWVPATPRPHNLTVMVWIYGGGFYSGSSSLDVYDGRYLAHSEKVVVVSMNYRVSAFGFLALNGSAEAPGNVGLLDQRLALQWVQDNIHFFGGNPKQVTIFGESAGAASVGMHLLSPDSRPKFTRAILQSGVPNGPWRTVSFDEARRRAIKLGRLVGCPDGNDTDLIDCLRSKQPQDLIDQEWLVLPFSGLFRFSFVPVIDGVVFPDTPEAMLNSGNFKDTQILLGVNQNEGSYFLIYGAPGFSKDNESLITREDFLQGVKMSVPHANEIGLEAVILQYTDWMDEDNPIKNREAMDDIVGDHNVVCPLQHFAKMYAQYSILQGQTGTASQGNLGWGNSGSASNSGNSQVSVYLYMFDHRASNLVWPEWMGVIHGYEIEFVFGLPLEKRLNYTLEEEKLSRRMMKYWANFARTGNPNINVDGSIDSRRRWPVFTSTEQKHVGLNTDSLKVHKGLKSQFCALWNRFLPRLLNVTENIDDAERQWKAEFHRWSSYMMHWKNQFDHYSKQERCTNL

For the compound `COc1ccc(-c2nn(-c3ccccc3F)c3c2CCS(=O)(=O)O3)cc1`, the inhibition entry in [1] is “inactive”. Besides, on Cholinesterase [2], the IC50 (usually the point on the concentration scale where inhibition reaches its midpoint) came to 460 nM. Moreover, the inhibition result in [3], in [4] and in data set [5] was “Active” each time. Moreover, the pH-dependent lipophilicity (logD) (commonly lipophilicity at a set pH, counting ionised and neutral species) at 24 h in data set [6] is 2.62. Besides, the viability at 24 h, 50 µM in [7] was above 90%. The viability at 24 h, up to 50 µM in [8] is above 90%. Further, the Activity in the data set on PC-12 was above 70%. Besides, on Cholinesterase [9], the inhibitory constant (Ki) (as a rule, a measure of affinity in units of concentration, obtained from inhibition or displacement) was determined as 145 nM.
Regarding `COc1ccc(-c2nn(-c3ccccc3Cl)c3c2CCS(=O)(=O)O3)cc1`, in data set [1], the inhibition result is “inactive”. For the same compound, on Cholinesterase [2], the IC50 was found to be 420 nM. Besides, the inhibition entry in data set [10], in data set [11] and in [12] was “Active” each time. In [6], the logD at 24 h came out at 3.04. For the same compound, the viability at 24 h, 50 µM in data set [7] was above 90%. The viability at 24 h, up to 50 µM in [8] was above 90%. For the same compound, the Activity with PC-12 was above 70%. The compound further had an inhibition constant Ki on Cholinesterase [9] of 60 nM.
